# Source: patent publication US20050244328A1 (priority 2002, published 2005)
# Where “and” joins values, the source holds several entries; their conditions need not be identical. Equal entries are not always repeated.
# How the values were obtained:
# Menidia beryllina = test: 96-hour bioassay of ClO2 treated side stream effluent, Independent Bioassay Laboratory A, silverside minnow; format: in vivo; settings: end of 96-hour test period; ClO2 treated side stream effluent grabs Sep. 3, 2001 12:00, 18:00, 24:00, Sep. 4, 2001 06:00
# Excerpt: Mysidopsis bahia (Mysids) and Menidia beryllina (Silversides) were subjected to ClO2 treated effluent in these tests. Adequate volumes of chemical were brought to the site to conduct a dosing of the side stream for a 24-hour period. During this period, 2 gallons of treated water were taken at 6-hour intervals, preserved on ice and shipped to an independent bioassay laboratory (designated Independent Bioassay Laboratory A).
# Table 3(c) illustrates the survivability of the organisms at the 96-hour end-point in the test for each of the 4 samples taken (samples indicated by date and time each sample was taken.).
# Silversides = test: In-house silverside bioassay of ClO2 treated effluent; format: in vivo, Menidia beryllina; settings: numerous in-house tests, WWTP 1
# Staphylococcus aureus = settings: 1 ppm of ClO2; contact time 60 s; cited from earlier work
# [1] = test system: Pectinatus cervisiiphilus; settings: 0.1 ppm of ClO2; contact time 5 min; cited from earlier work
# Mysid shrimp = test: In-house mysid shrimp acute bioassay of treated effluent; settings: for surviving Mysid shrimp DAY 1 (bowls A, B) / surviving Mysid shrimp DAY 2 (bowls A, B) / surviving Mysid shrimp DAY 3 (bowls A, B) / surviving Mysid shrimp DAY 4 (bowls A, B): 10 initial per bowl, set up Aug. 20, 2002
# Fecal Coliform = test: Fecal coliform kill in ClO2-dosed post clarifier effluent, side stream pilot at WWTP 1 (Membrane Filter SM 9222D)
substance,measurement,setting,value
Chlorine dioxide [ClO2],Percent Survival m. beryllina,Menidia beryllina,95% and 100%
same,survival of Silversides post CLO2 dosing,Silversides,always survived
same,Inactivation in %,Staphylococcus aureus,99.999%
same,Inactivation in %,[1],99.9%
same,survival rate of Mysid Shrimp 24 HR,"Mysid shrimp; 0.64 PPM DOSE, 25% solution",100
same,survival rate of Mysid Shrimp 48 HR,"Mysid shrimp; 0.64 PPM DOSE, 25% solution",100
same,survival rate of Mysid Shrimp 72 HR,"Mysid shrimp; 0.64 PPM DOSE, 25% solution",90
same,survival rate of Mysid Shrimp 96 HR,"Mysid shrimp; 0.64 PPM DOSE, 25% solution",90
same,"surviving Mysid shrimp DAY 1 (bowls A, B)","Mysid shrimp; 0.64 PPM DOSE, 25% solution",10
same,"surviving Mysid shrimp DAY 2 (bowls A, B)","Mysid shrimp; 0.64 PPM DOSE, 25% solution",10
same,"surviving Mysid shrimp DAY 3 (bowls A, B)","Mysid shrimp; 0.64 PPM DOSE, 25% solution",9
same,"surviving Mysid shrimp DAY 4 (bowls A, B)","Mysid shrimp; 0.64 PPM DOSE, 25% solution",9
same,survival rate of Mysid Shrimp 24 HR,"Mysid shrimp; 0.64 PPM DOSE, 50% solution",100
same,survival rate of Mysid Shrimp 48 HR,"Mysid shrimp; 0.64 PPM DOSE, 50% solution",100
same,survival rate of Mysid Shrimp 72 HR,"Mysid shrimp; 0.64 PPM DOSE, 50% solution",100
same,survival rate of Mysid Shrimp 96 HR,"Mysid shrimp; 0.64 PPM DOSE, 50% solution",100
same,"surviving Mysid shrimp DAY 1 (bowls A, B)","Mysid shrimp; 0.64 PPM DOSE, 50% solution",10
same,"surviving Mysid shrimp DAY 2 (bowls A, B)","Mysid shrimp; 0.64 PPM DOSE, 50% solution",10
same,"surviving Mysid shrimp DAY 3 (bowls A, B)","Mysid shrimp; 0.64 PPM DOSE, 50% solution",10
same,"surviving Mysid shrimp DAY 4 (bowls A, B)","Mysid shrimp; 0.64 PPM DOSE, 50% solution",10
same,survival rate of Mysid Shrimp 24 HR,"Mysid shrimp; 0.64 PPM DOSE, 75% solution",100
same,survival rate of Mysid Shrimp 48 HR,"Mysid shrimp; 0.64 PPM DOSE, 75% solution",100
same,survival rate of Mysid Shrimp 72 HR,"Mysid shrimp; 0.64 PPM DOSE, 75% solution",95
same,survival rate of Mysid Shrimp 96 HR,"Mysid shrimp; 0.64 PPM DOSE, 75% solution",90
same,"surviving Mysid shrimp DAY 1 (bowls A, B)","Mysid shrimp; 0.64 PPM DOSE, 75% solution",10
same,"surviving Mysid shrimp DAY 2 (bowls A, B)","Mysid shrimp; 0.64 PPM DOSE, 75% solution",10
same,"surviving Mysid shrimp DAY 3 (bowls A, B)","Mysid shrimp; 0.64 PPM DOSE, 75% solution",9 and 10
same,"surviving Mysid shrimp DAY 4 (bowls A, B)","Mysid shrimp; 0.64 PPM DOSE, 75% solution",8 and 10
same,survival rate of Mysid Shrimp 24 HR,"Mysid shrimp; 0.64 PPM DOSE, 100% solution",100
same,survival rate of Mysid Shrimp 48 HR,"Mysid shrimp; 0.64 PPM DOSE, 100% solution",100
same,survival rate of Mysid Shrimp 72 HR,"Mysid shrimp; 0.64 PPM DOSE, 100% solution",85
same,survival rate of Mysid Shrimp 96 HR,"Mysid shrimp; 0.64 PPM DOSE, 100% solution",70
same,"surviving Mysid shrimp DAY 1 (bowls A, B)","Mysid shrimp; 0.64 PPM DOSE, 100% solution",10
same,"surviving Mysid shrimp DAY 2 (bowls A, B)","Mysid shrimp; 0.64 PPM DOSE, 100% solution",10
same,"surviving Mysid shrimp DAY 3 (bowls A, B)","Mysid shrimp; 0.64 PPM DOSE, 100% solution",7 and 10
same,"surviving Mysid shrimp DAY 4 (bowls A, B)","Mysid shrimp; 0.64 PPM DOSE, 100% solution",5 and 9
same,survival rate of Mysid Shrimp 24 HR,"Mysid shrimp; 1.05 PPM DOSE, 25% solution",100
same,survival rate of Mysid Shrimp 48 HR,"Mysid shrimp; 1.05 PPM DOSE, 25% solution",100
same,survival rate of Mysid Shrimp 72 HR,"Mysid shrimp; 1.05 PPM DOSE, 25% solution",100
same,survival rate of Mysid Shrimp 96 HR,"Mysid shrimp; 1.05 PPM DOSE, 25% solution",100
same,"surviving Mysid shrimp DAY 1 (bowls A, B)","Mysid shrimp; 1.05 PPM DOSE, 25% solution",10
same,"surviving Mysid shrimp DAY 2 (bowls A, B)","Mysid shrimp; 1.05 PPM DOSE, 25% solution",10
same,"surviving Mysid shrimp DAY 3 (bowls A, B)","Mysid shrimp; 1.05 PPM DOSE, 25% solution",10
same,"surviving Mysid shrimp DAY 4 (bowls A, B)","Mysid shrimp; 1.05 PPM DOSE, 25% solution",10
same,survival rate of Mysid Shrimp 24 HR,"Mysid shrimp; 1.05 PPM DOSE, 50% solution",100
same,survival rate of Mysid Shrimp 48 HR,"Mysid shrimp; 1.05 PPM DOSE, 50% solution",100
same,survival rate of Mysid Shrimp 72 HR,"Mysid shrimp; 1.05 PPM DOSE, 50% solution",95
same,survival rate of Mysid Shrimp 96 HR,"Mysid shrimp; 1.05 PPM DOSE, 50% solution",95
same,"surviving Mysid shrimp DAY 1 (bowls A, B)","Mysid shrimp; 1.05 PPM DOSE, 50% solution",10
same,"surviving Mysid shrimp DAY 2 (bowls A, B)","Mysid shrimp; 1.05 PPM DOSE, 50% solution",10
same,"surviving Mysid shrimp DAY 3 (bowls A, B)","Mysid shrimp; 1.05 PPM DOSE, 50% solution",10 and 9
same,"surviving Mysid shrimp DAY 4 (bowls A, B)","Mysid shrimp; 1.05 PPM DOSE, 50% solution",9 and 10
same,survival rate of Mysid Shrimp 24 HR,"Mysid shrimp; 1.05 PPM DOSE, 75% solution",100
same,survival rate of Mysid Shrimp 48 HR,"Mysid shrimp; 1.05 PPM DOSE, 75% solution",100
same,survival rate of Mysid Shrimp 72 HR,"Mysid shrimp; 1.05 PPM DOSE, 75% solution",100
same,survival rate of Mysid Shrimp 96 HR,"Mysid shrimp; 1.05 PPM DOSE, 75% solution",95
same,"surviving Mysid shrimp DAY 1 (bowls A, B)","Mysid shrimp; 1.05 PPM DOSE, 75% solution",10
same,"surviving Mysid shrimp DAY 2 (bowls A, B)","Mysid shrimp; 1.05 PPM DOSE, 75% solution",10
same,"surviving Mysid shrimp DAY 3 (bowls A, B)","Mysid shrimp; 1.05 PPM DOSE, 75% solution",10
same,"surviving Mysid shrimp DAY 4 (bowls A, B)","Mysid shrimp; 1.05 PPM DOSE, 75% solution",10 and 9
same,survival rate of Mysid Shrimp 24 HR,"Mysid shrimp; 1.05 PPM DOSE, 100% solution",100
same,survival rate of Mysid Shrimp 48 HR,"Mysid shrimp; 1.05 PPM DOSE, 100% solution",100
same,survival rate of Mysid Shrimp 72 HR,"Mysid shrimp; 1.05 PPM DOSE, 100% solution",90
same,survival rate of Mysid Shrimp 96 HR,"Mysid shrimp; 1.05 PPM DOSE, 100% solution",70
same,"surviving Mysid shrimp DAY 1 (bowls A, B)","Mysid shrimp; 1.05 PPM DOSE, 100% solution",10
same,"surviving Mysid shrimp DAY 2 (bowls A, B)","Mysid shrimp; 1.05 PPM DOSE, 100% solution",10 and 9
same,"surviving Mysid shrimp DAY 3 (bowls A, B)","Mysid shrimp; 1.05 PPM DOSE, 100% solution",8 and 10
same,"surviving Mysid shrimp DAY 4 (bowls A, B)","Mysid shrimp; 1.05 PPM DOSE, 100% solution",6 and 8
same,No. of surviving shrimp DAY 2,"Mysid shrimp; 100% effluent, 10 shrimp per bowl, set up Aug. 13, 2002, ClO2 samples 14:00 and 15:00, bowls A, B, landfill leachate slug in plant",10 and 9 and 6
same,AVG (% survival of bowls A and B),"Mysid shrimp; 100% effluent, set up Aug. 13, 2002, ClO2 samples 14:00 and 15:00",40%
same,mysid shrimp bioassay outcome,"Mysid shrimp; side stream, after adjustments to the chlorine dioxide generator (weaker hypochlorite solution)",successful (acceptable end-point survival)
same,Fecal Coliform,"Fecal Coliform; 1.8 ppm, 5 min contact, pH 7.20, Feb. 6, 2001",<1 #cfu/100 mls
same,Fecal Coliform,"Fecal Coliform; 1.8 ppm, 5 min contact, pH 7.20, Feb. 7, 2001",<1 #cfu/100 mls
same,Fecal Coliform,"Fecal Coliform; 2.23 ppm, 5 min contact, pH 7.20, Feb. 6, 2001",<1 #cfu/100 mls
same,Fecal Coliform,"Fecal Coliform; 2.23 ppm, 5 min contact, pH 7.20, Feb. 7, 2001",<1 #cfu/100 mls
same,Fecal Coliform,"Fecal Coliform; 3.0 ppm, 5 min contact, pH 7.20, Feb. 6, 2001",<1 #cfu/100 mls
same,Fecal Coliform,"Fecal Coliform; 3.0 ppm, 5 min contact, pH 7.20, Feb. 7, 2001",<1 #cfu/100 mls
same,Fecal Coliform,"Fecal Coliform; 3.97 ppm, 5 min contact, pH 7.20, Feb. 6, 2001",<1 #cfu/100 mls
same,Fecal Coliform,"Fecal Coliform; 3.97 ppm, 5 min contact, pH 7.20, Feb. 7, 2001",<1 #cfu/100 mls
same,Fecal Coliform,"Fecal Coliform; 5% chlorite solution, ClO2 dose rate 3.0 mg/ltr, 5 minute contact, Jan. 24, 2001",<1 #cfu/100 mls
same,Fecal Coliform,"Fecal Coliform; 5.0 ppm, 5 min contact, pH 7.20, Feb. 6, 2001",<1 #cfu/100 mls
same,Fecal Coliform,"Fecal Coliform; 5.0 ppm, 5 min contact, pH 7.20, Feb. 7, 2001",<1 #cfu/100 mls
same,Fecal Coliform,"Fecal Coliform; Injector 1.8 ppm, 5 min contact, pH 7.30, Feb. 5, 2001",<1 #cfu/100 mls
same,Fecal Coliform,"Fecal Coliform; Injector 2.23 ppm, 5 min contact, pH 7.30, Feb. 5, 2001",<1 #cfu/100 mls
same,Fecal Coliform,"Fecal Coliform; Injector 3.0 ppm, 5 min contact, pH 7.30, Feb. 5, 2001",<1 #cfu/100 mls
same,Fecal Coliform,"Fecal Coliform; Injector 3.97 ppm, 5 min contact, pH 7.30, Feb. 5, 2001",<1 #cfu/100 mls
same,Fecal Coliform,"Fecal Coliform; Injector 5.0 ppm, 5 min contact, pH 7.30, Feb. 5, 2001, (*) bits of algae in samples",1 (*) #cfu/100 mls and <1 #cfu/100 mls
same,dosing rate at which fecal coliform kills were also achieved (as low as),Fecal Coliform; further testing,0.075 ppm
same,fecal coliform kill,Fecal Coliform; lower dosing rate of 1.8 ppm,effectively killed
same,time required for a complete fecal kill,Fecal Coliform; lower dosing rates,more than 2 minutes
